Reference: patent US6267972A, “Cosmetic/pharmaceutical compositions comprising β-adrenergic agonists/substance P antagonists” (Societe L'Oreal S.A., priority 1995, dated 2001)
Where a name gives a salt, the structure may show the parent alone.

How the values were obtained:
substance P = assay: In vivo functional test, neurogenic inflammation model: antidromic stimulation of the saphenous nerve, Evans blue tissular extravasation
From the text: The test entailed creating a neurogenic inflammation by the antidromic stimulation of the saphenous nerve in the anaesthetized animal. This nerve innervates the cutaneous regions of the hind paws. The stimulation causes the release from the nerve endings of substance P, which is partially responsible for the neurogenic inflammation. The neurogenic inflammation was quantified by measuring the tissular permeability with Evans blue, a marker for the tissular extravasation of plasma albumin which occurs during inflammation. This reference model was used in the in vivo search for substance P antagonists. […] Dose Effect of Salbutamol in the Antidromic Stimulation Model Presented in Example 1

sensitive skins = assay: Test with capsaicin: topical application of capsaicin cream, appearance of subjective signs; assay type: in vivo, human; conditions: 0.05 ml cream with 0.075% capsaicin on approx. 4 cm^2 of skin; subjects with sensitive skins
Procedure: In order to determine if a skin is sensitive or not, the assignee hereof has also developed a test.
The test with capsaicin entails topically applying,. to approximately 4 cm^2 of skin, 0.05 ml of a cream comprising 0.075% of capsaicin and in noting the appearance of subjective signs caused by this application, such as smarting, burning sensations and itching.

[1] = 1 μmol, Table I, mean of 8 experiments, p < 0.001

Q: `CC(CCc1ccccc1)NC(C)C(O)c1ccc(O)cc1` (centres unmarked) [Nylidrin.HCl] was tested. Which “% of inhibition” value (substance P; [1]) did it give?
A: The value was 95%.

Q: For `COc1cc(CNC(=O)CCCC/C=C/C(C)C)ccc1O` [capsaicin], which “erythema following subjective signs” value (sensitive skins) is on record?
A: The value was “followed by the appearance of an erythema”.

Q: For `CC(C)(C)NCC(O)c1ccc(O)c(CO)c1` (centres unmarked) [Salbutamol], which “% of inhibition” value (substance P; [1]) is on record?
A: The value was 100%.

Q: And the “activity with respect to the release of substance P, dose dependence” value (substance P; 0.1 to 100 nmol)?
A: The value was “dose dependent”.

Q: And the “% of inhibition” value (substance P; Table II, dose 0.1 nmol, n.s. (not significant))?
A: The value was 17%.

Q: And the “% of inhibition” value (substance P; Table II, dose 1 nmol, p < 0.05)?
A: Its value is 65%.

Q: What about the “% of inhibition” value (substance P; Table II, dose 10 nmol, p < 0.01) of the same compound?
A: Its value is 80%.

Q: What about the “% of inhibition” value (substance P; Table II, dose 100 nmol, p < 0.01) of the same compound?
A: The value was 100%.

Q: What about the “activity relative to that of the reference molecule, Spantide II” value (substance P; antidromic stimulation model) of the same compound?
A: Its value is “approximately 30 times”.

Q: With Spantide II as the compound, how does the “% of inhibition” value (substance P; 30 nmol, Table I, mean of 8 experiments, p < 0.01) read?
A: The value was 59%.

Q: And the “% of inhibition” value (substance P; Table II, dose 30 nmol, p < 0.01)?
A: Its value is 67%.

Q: For `CC(C)(C)NCC(O)COc1cccc2[nH]c(=O)[nH]c12` (centres unmarked) [CGP12177.HCl], which “% of inhibition” value (substance P; [1]) is on record?
A: Its value is 77%.

Q: And the “Concentration (μg/ml of Evans blue)” value (substance P; 1 μmol, mean of 8 experiments, expressed as Evans blue, n.d.: not detected, control 5.98 ± 0.65)?
A: The value was 1.37 ± 0.32 µg/mL.

Q: How did the “% of inhibition” value (substance P; [1]) turn out when `CC(C)NCC(O)c1ccc(O)c(O)c1` (centres unmarked) [Isoproterenol] was run?
A: Its value is 100%.
